Earlier results in patent US20090186859A1, “DIAZENIUMDIOLATED NON-STEROIDAL ANTI-INFLAMMATORY DRUGS, COMPOSITIONS THEREOF, AND RELATED METHODS” (THE UNITED STATES OF AMERICA, AS REPRESENTED BY THE SEC., …, priority 2006, published 2009).

Columns and labels:
intestinal tumorigenesis = settings: APC (DELTA 716) mice
colon carcinogenesis = settings: AOM-treated rat model
[1] = system: hormone-positive tumors (estrogen receptor (ER) or progesterone receptor (PR)-positive); settings: women who took aspirin seven or more times a week vs women who did not take it
colon polyp formation = settings: those at high risk, including those already treated for colorectal cancer
[2] = long-term administration to animals
[3] = system: colonic aberrant crypt foci; settings: male F344 rats
tumor = settings: APC(Min)+ mouse model

SMILES: CS(=O)(=O)c1ccc(C2=C(c3ccc(F)c(F)c3)C(=O)OC2)cc1 [MF-Tricyclic]
- intestinal tumorigenesis (intestinal tumorigenesis): blocks intestinal tumorigenesis

SMILES: COc1ccc2c(c1)c(CC(=O)O)c(C)n2C(=O)c1ccc(Cl)cc1 [indomethacin]
- inhibition of colon carcinogenesis (colon carcinogenesis): effectively inhibit colon carcinogenesis

SMILES: CC(C)Cc1ccc(C(C)C(=O)O)cc1 (stereo not drawn) [ibuprofen]
- inhibition of colon carcinogenesis (colon carcinogenesis): effectively inhibit colon carcinogenesis

SMILES: CN1C(C(=O)Nc2ccccn2)=C(O)c2ccccc2S1(=O)=O [piroxicam]
- inhibition of colon carcinogenesis (colon carcinogenesis): effectively inhibit colon carcinogenesis

SMILES: CC(=O)Oc1ccccc1C(=O)O [aspirin, acetylsalicylic acid]
- lower risk of developing hormone-positive tumors [1]: 26%
- inhibition of colon carcinogenesis (colon carcinogenesis): effectively inhibit colon carcinogenesis
- colon polyp formation (colon polyp formation): significantly reduce colon polyp formation

SMILES: CC1=C(CC(=O)O)c2cc(F)ccc2/C1=C\c1ccc([S+](C)[O-])cc1 (stereo not drawn) [sulindac]
- inhibition of colon carcinogenesis (colon carcinogenesis): effectively inhibit colon carcinogenesis

SMILES: O=NN1CCC[C@H]1C(=O)O [N-nitrosoproline]
- tumorigenicity [2]: none of these studies showed it to be tumorigenic

SMILES: COc1ccc2cc(CCC(C)=O)ccc2c1 [nabumetone]
- formation of colonic aberrant crypt foci [3]: inhibit formation of colonic aberrant crypt foci

SMILES: CS(=O)(=O)Nc1ccc([N+](=O)[O-])cc1Oc1ccccc1 [nemisulide]
- formation of colonic aberrant crypt foci [3]: inhibit formation of colonic aberrant crypt foci

SMILES: CC(C(=O)O)c1ccc(-c2ccccc2)c(F)c1 (stereo not drawn) [flurbiprofen]
- anti-tumor effects (tumor): demonstrated anti-tumor effects
